Laboratory results as given in patent US20040126882A1, “Regulatable, catalytically active nucleic acids” (priority 2000, published 2004).

How the values were obtained:
3MeX2P6 = assay: Effector specificity of 3MeX2P6 in vitro and in vivo
Description: In vitro splicing assays. The assays were preformed by heating the RNA (500 nM) in H2O to 70° C. for 3 min then transferring to ice for 1 min. […] GTP (50 μM) was added to the remaining reaction (5 μl total volume) to start the splicing reaction. The reaction was incubated at 37° C. for 30 min and then terminated with stop dye (5 μl). The reactions were heated to 70° C. for 3 min and 5 μl was analyzed on an 8% denaturing polyacrylamide gel. The gel was dried, exposed to a phosphor screen and analyzed using a Molecular Dynamics Phosphorimager (Sunnyvale, Calif.). In vivo growth curves.

Rev-dependent ligase = type: biochemical
Description: Ligation assays. Ligation assays were performed as described hereinabove.

C600ThyA::Kan^R cells = test system: C600ThyA::Kan^R cells
Description: In vivo growth curves. Cells grown overnight in LB were diluted 1:100 in MM containing either theophylline, caffeine, 3-methylxanthine or no effector, and analyzed on a Microbiology Workstation Bioscreen C (Labsystems, Inc., Franklin, Mass.).

[1] = test system: Cyt 18-dependent population; assay: Specificity of activation of Cyt18-dependent ribozymes by proteins; type: biochemical
Description: (§1) Protein inactivation. Standard ligation assays were performed as described above, but in the presence of protein samples that had been pre-treated as follows. Cyt18 protein was denatured by heating for 10 min at 70° C. or by the addition of 6% SDS (0.7% SDS in ligation reaction). Lysozyme was heated 10 min at 100° C. or incubated 10 min at room temperature in the presence of 2 mM DTT (0.3 mM DTT final reaction) without inactivating the protein. The protein was successfully inactivated by heating for […] at 70° C. in the presence of 2 mM DTT. Ligation reactions were performed with 1.3 μM protein in 15 μl reactions incubated 5 min at 25° C.

lysozyme [2] = biological target: T1, lysozyme (Gallus gallus, UniProt P00698); assay: Competition assay, competitor RNA against lysozyme activation of lys11-2; type: biochemical, hen; settings: 3 μM competitor RNA, 2 μM lysozyme
Description: Competition assays. Ligation assays were performed as described above, using 10 pmol of [^32P]-body-labeled ribozyme (cyt7-2 or lys11-2; […]) and 20 pmol effector oligonucleotide (2 μM). The denatured and annealed RNA mixture was combined with ligation buffer, 20 pmol protein (Cyt18, lysozyme, or water in the case of (−) protein samples; 2 μM), and 30 pmol of denatured and annealed competitor RNA (3 μM). Competitor RNAs are as follows:
Where N=(A, G, C, U), and tRNA (from Yeast; Gibco BRL, Gaithersburg, Md.). […] Cyt18 reactions were incubated 5 min at 25° C. and lysozyme reactions were incubated 10 min. Reactions were terminated by the addition of 45 μl of SDS/urea stop mix (75 mM EDTA, 80% formamide, saturated urea, saturated SDS, 0.05% bromophenol blue, 0.05% xylene cyanol) and analyzed on 8% polyacrylamide gels containing 0.1% SDS as above.

lysozyme [3] = biological target: T1, lysozyme; assay: Filter binding assay with lysozyme; parameters: species or system hen; settings: read-out: Kd of anti-lysozyme aptamer
Description: Binding assays. Binding assays were performed in triplicate by combining I pmol of [^32P]-body-labeled RNA, 20 pmol 18.90a, and varying amounts of target protein (1 pmol to 5 nmol) in 50 μl of ligation buffer. After incubation at room temperature for 30 min, the mixture was drawn under vacuum through a series of nitrocellulose and nylon filters and washed with 150 μl of ligation buffer. The ratio of protein-bound RNA versus free RNA was determined by analyzing the counts retained on the nitrocellulose filter versus the counts on the nylon filter.

[4] = test system: lysozyme-dependent clones; assay: Specificity of activation of lysozyme-dependent ribozymes by proteins; type: biochemical; settings: lysozyme both reduced and denatured
Description: as §1

Cn1c(=O)c2[nH]c(=O)[nH]c2n(C)c1=O [1,3-dimethyl urilic acid]
responsiveness of 3MeX2P6 variants to effector (3MeX2P6): nor were they responsive

Cn1c(=O)[nH]c2nc[nH]c2c1=O [1-methylxanthine]
responsiveness of 3MeX2P6 variants to effector (3MeX2P6): nor were they responsive

Cn1c(=O)[nH]c(=O)c2[nH]cnc21 [3-methylxanthine]
responsiveness of 3MeX2P6 variants to effector (3MeX2P6): responsive

Cn1cnc2[nH]c(=O)[nH]c(=O)c21 [7-methylxanthine]
responsiveness of 3MeX2P6 variants to effector (3MeX2P6): nor were they responsive

N=C(N)NCCC[C@H](N)C(=O)O [arginine]
activation of the Rev-dependent ligase (Rev-dependent ligase): Activation was observed only with HIV Tat peptide

Cn1c(=O)c2c(ncn2C)n(C)c1=O [caffeine]
activation of growth of cells with td gene divided by Th2P6 by effector (C600ThyA::Kan^R cells): not activated
responsiveness of 3MeX2P6 variants to effector (3MeX2P6): nor were they responsive

O=c1[nH]cnc2nc[nH]c12 [hypoxanthine]
responsiveness of 3MeX2P6 variants to effector (3MeX2P6): nor were they responsive

Cn1cnc2c1c(=O)[nH]c(=O)n2C [theobromine]
responsiveness of 3MeX2P6 variants to effector (3MeX2P6): nor were they responsive

Cn1c(=O)c2[nH]cnc2n(C)c1=O [theophylline]
concentration causing a decrease in growth of cells containing the parental td intron (toxic to cells) (C600ThyA::Kan^R cells; E. coli): greater than 0.5 mM
concentration that progressively decreases growth of cells with theophylline-dependent introns (C600ThyA::Kan^R cells; E. coli): above 2 mM
responsiveness of 3MeX2P6 variants to effector (3MeX2P6): no longer responsive

O=c1[nH]c(=O)c2[nH]cnc2[nH]1 [xanthine]
responsiveness of 3MeX2P6 variants to effector (3MeX2P6): nor were they responsive

E. coli tryptophanyl tRNA synthetase: non-cognate protein
activation of Cyt18-dependent ribozyme by non-cognate protein [1]: No activation

MS2 coat protein: non-cognate protein
activation of Cyt18-dependent ribozyme by non-cognate protein [1]: No activation

cl: high affinity anti-lysozyme aptamer, SEQ ID NO:13 (GCGACTGGACATCACGAG; chemistry not given here)
reduction of lysozyme activation of lys11-2 by competitor RNA (lysozyme [2]): reduced activation to background levels
Kd (lysozyme [3]): 31 nM

lysozyme: hen egg white lysozyme
activation of Cyt18-dependent ribozyme by non-cognate protein [1]: No activation
activation of catalysis by inactivated lysozyme [4]: unable to activate
